Results published in article PMC6842052 (The Journal of pharmacy and pharmacology, 2019).

Assays:
[1] = test system: human potassium hERG channel; conditions: ref unpublished results; cited from earlier work
[2] = test system: OEA levels (biomarker of FAAH activity); assay: OEA levels in liver and plasma after oral URB937; type: in vivo; conditions: rat, oral 0.3, 1, 3, 10 mg/kg, one hour
[3] = Pharmacokinetic study of URB937 in rats; type: in vivo, rat
[4] = ref unpublished results; cited from earlier work
male and female rats [5] = assay: Subchronic toxicity study
male and female rats [6] = assay: Acute toxicity study; type: in vivo, rat
[7] = male Sprague Dawley rats, 3 mg/kg oral
[8] = male and female rats, 100, 300, 1000 mg/kg oral for 14 days
[9] = male and female rats, single oral 100, 300, 1000 mg/kg
[10] = male rats, single oral 300 mg/kg, 7 days

NC(=O)c1cccc(-c2cc(OC(=O)NC3CCCCC3)ccc2O)c1 [URB937]
inhibition of the human potassium hERG channel [1]: does not inhibit
OEA levels in liver [2]: dose-dependent elevation
OEA levels in plasma [2]: dose-dependent elevation
AUCplasma, area under the curve [3, 7]: 656.2 ng·h/mL
Tmax, time at which Cmax is reached [3, 7]: 1 h
Vd, distribution volume [3, 7]: 17.9 L
F, oral bioavailability ([3]; male Sprague Dawley rats, 3 mg/kg oral vs intravenous): 36%
Cl, clearance ([3]; male Sprague Dawley rats, 3 mg/kg oral, noncompartmental model): 76.64 mL/min
Cmax, maximal plasma concentration ([3]; male Sprague Dawley rats, 3 mg/kg oral, plasma): 159.47 ng/mL
t1/2, terminal half-life ([3]; male Sprague Dawley rats, 3 mg/kg oral, 3 mg/kg): 2.702 h
t1/2 (cleared from circulation) ([3]; male rats, 3 mg/kg oral): approximately 3 h
brain levels of URB937 ([3]; male rats, 3 mg/kg oral, below limit of detection (LOD 50 pg/ml, LOQ 300 pg/ml)): < 0.05 ng/mL
plasma levels of URB937 in dose-escalation study ([3]; rats, oral 0.3 to 100 mg/kg, 1 h after treatment): increased linearly in the dose range of 0.3 to 10 mg/kg and reached saturation between 30 mg/kg and 100 mg/kg
genotoxic effects in the Ames' test [4]: does not exert genotoxic effects
food intake (male and female rats [5]; female rats, 300 mg/kg oral once daily for 14 days): small increase
macroscopic examination at necropsy and microscopic histopathology (male and female rats [5]; [8]): did not reveal any abnormality
mortality (male and female rats [5]; [8]): None of the animals died
tolerability (male and female rats [5]; male and female rats, subchronic (2 weeks) oral administration of supramaximal doses): well tolerated
plasma glucose levels (male and female rats [5]; male rats only, 14-day oral administration): increase
food intake (male and female rats [6]; female rats, single oral 100 mg/kg, 7 days): small, but significant increase
water consumption (male and female rats [6]; female rats, single oral 1000 mg/kg, 7 days): larger increment
tolerability (male and female rats [6]; male and female rats, acute oral administration of supramaximal doses): well tolerated
hematology and blood chemistry screens (male and female rats [6]; [9]): no significant alterations
macroscopic examination at necropsy and microscopic histopathology (male and female rats [6]; [9]): did not reveal any abnormality
mortality (male and female rats [6]; [9]): None of the animals died
cumulative food intake (male and female rats [6]; [10]): reduced
cumulative water intake (male and female rats [6]; [10]): reduced
